System: NCIH929.1 cells
Experiment: Cell viability assay (CellTiter-Glo 2.0, ATP quantification)
Type: cell-based
Settings: NCIH929.1 cell viability, CellTiter-Glo 2.0, 96 hr incubation, top concentration 1 μM
Method in brief: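 Read-out is CellTiter-Glo 2.0 luminescence (ATP), after 96 h compound exposure at 37 °C, with a day-0 plate giving the CT0 baseline. Duplicate 10-point half-log titration from 1 μM applied to 750 cells/well in RPMI, 10% FBS, 0.05 mM 2-mercaptoethanol.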

SMILES | GI50 [nM]
O=C1CCC(N2C(=O)c3cccc(NCc4cnn(C5CCN(C(=O)CCC6CC6)CC5)c4)c3C2=O)C(=O)N1 (stereo not shown) [Compound 21, 4-(((1-(1-(3-cyclopropylpropanoyl)piperidin-4-yl)-1H-pyrazol-4-yl)methyl)amino)-2-(2,6-dioxopiperidin-3-yl)isoindoline-1,3-dione] | < 100
O=C1CCC(N2C(=O)c3cccc(NCc4cnn(C5CCN(C(=O)c6cccc(C#Cc7ccccc7)c6)CC5)c4)c3C2=O)C(=O)N1 (stereo not shown) [Compound 108, 2-(2,6-dioxopiperidin-3-yl)-4-(((1-(1-(3-(phenylethynyl)benzoyl)piperidin-4-yl)-1H-pyrazol-4-yl)methyl)amino)isoindoline-1,3-dione] | < 100
C#CC1(C(=O)N2CCC(n3cc(CNc4cccc5c4C(=O)N(C4CCC(=O)NC4=O)C5=O)cn3)CC2)CCC1 (stereo not shown) [Compound 93, 2-(2,6-dioxopiperidin-3-yl)-4-(((1-(1-(1-ethynylcyclobutane-1-carbonyl)piperidin-4-yl)-1H-pyrazol-4-yl)methyl)amino)isoindoline-1,3-dione] | < 1
O=C1CCC(N2C(=O)c3cccc(NCc4cnn(C5CCN(C(=O)C6CCCOC6)CC5)c4)c3C2=O)C(=O)N1 (stereo not shown) [Compound 42, 2-(2,6-dioxopiperidin-3-yl)-4-(((1-(1-(tetrahydro-2H-pyran-3-carbonyl)piperidin-4-yl)-1H-pyrazol-4-yl)methyl)amino)isoindoline-1,3-dione] | < 100
Cc1ccc(OC(C)(C)C(=O)N2CCC(n3cc(CNc4cccc5c4C(=O)N(C4CCC(=O)NC4=O)C5=O)cn3)CC2)cc1C (stereo not shown) [Compound 110, 4-(((1-(1-(2-(3,4-dimethylphenoxy)-2-methylpropanoyl)piperidin-4-yl)-1H-pyrazol-4-yl)methyl)amino)-2-(2,6-dioxopiperidin-3-yl)isoindoline-1,3-dione] | < 100
O=C1CCC(N2C(=O)c3cccc(NCc4cnn(C5CCN(C(=O)C6CCN(C(=O)C7CCOCC7)CC6)CC5)c4)c3C2=O)C(=O)N1 (stereo not shown) [Compound 109, 2-(2,6-dioxopiperidin-3-yl)-4-(((1-(1-(1-(tetrahydro-2H-pyran-4-carbonyl)piperidine-4-carbonyl)piperidin-4-yl)-1H-pyrazol-4-yl)methyl)amino)isoindoline-1,3-dione] | < 100
O=C1CCC(N2C(=O)c3cccc(NCc4cnn(C5CCN(C(=O)C6(C#CC7CC7)CCC6)CC5)c4)c3C2=O)C(=O)N1 (stereo not shown) [Compound 205, 4-({1-[1-(1-Cyclopropylethynyl-cyclobutanecarbonyl)-piperidin-4-yl]-1H-pyrazol-4-yl-methyl}-amino)-2-(2,6-dioxo-piperidin-3-yl)-isoindole-1,3-dione] | < 100
O=C1CCC(N2C(=O)c3cccc(NCc4cnn(CC(F)(F)F)c4)c3C2=O)C(=O)N1 (stereo not shown) [Compound 153, 2-(2,6-dioxo-3-piperidyl)-4-[[1-(2,2,2-trifluoroethyl)pyrazol-4-yl]methylamino]isoindoline-1,3-dione] | < 100
CCC(C)C(=O)N1CCC(n2cc(CNc3cccc4c3C(=O)N(C3CCC(=O)NC3=O)C4=O)cn2)CC1 (stereo not shown) [Compound 13, 2-(2,6-dioxopiperidin-3-yl)-4-(((1-(1-(2-methylbutanoyl)piperidin-4-yl)-1H-pyrazol-4-yl)methyl)amio)isoindoline-1,3-dione] | < 100
O=C1CCC(N2C(=O)c3cccc(NCc4cnn(-c5ccccc5)c4)c3C2=O)C(=O)N1 (stereo not shown) [Compound 145, 2-(2,6-dioxopiperidin-3-yl)-4-(((1-phenyl-1H-pyrazol-4-yl)methyl)amino)isoindoline-1,3-dione] | < 100
CC1(C(=O)N2CCC(n3cc(CNc4cccc5c4C(=O)N(C4CCC(=O)NC4=O)C5=O)cn3)CC2)COC1 (stereo not shown) [Compound 61, 2-(2,6-dioxopiperidin-3-yl)-4-(((1-(1-(3-methyloxetane-3-carbonyl)piperidin-4-yl)-1H-pyrazol-4-yl)methyl)amino)isoindoline-1,3-dione] | < 100
O=C1CCC(N2C(=O)c3cccc(NCc4cnn(C5CCN(C(=O)C6(C7CC7)CCC6)CC5)c4)c3C2=O)C(=O)N1 (stereo not shown) [Compound 94, 4-(((1-(1-(1-cyclopropylcyclobutane-1-carbonyl)piperidin-4-yl)-1H-pyrazol-4-yl)methyl)amino)-2-(2,6-dioxopiperidin-3-yl)isoindoline-1,3-dione] | < 1
CC(C)(C)OC(=O)N1CCC(n2cc(CNc3cccc4c3C(=O)N(C3CCC(=O)NC3=O)C4=O)cn2)C(F)(F)C1 (stereo not shown) [Compound 176, tert-Butyl 4-(4-(((2-(2,6-dioxopiperidin-3-yl)-1,3-dioxoisoindolin-4-yl)amino)methyl)-1H-pyrazol-1-yl)-3,3-difluoropiperidine-1-carboxylate] | < 100
CC1(C(=O)N2CCC(n3cc(CNc4cccc5c4C(=O)N(C4CCC(=O)NC4=O)C5=O)cn3)CC2)CC1(Cl)Cl (stereo in doubt) [Compound 183, 4-(((1-(1-((S)-2,2-Dichloro-1-methylcyclopropane-1-carbonyl)piperidin-4-yl)-1H-pyrazol-4-yl)methyl)amino)-2-(2,6-dioxopiperidin-3-yl)isoindoline-1,3-dione] | < 1
Cc1oc(-c2cccc(F)c2)nc1CC(=O)N1CCC(n2cc(CNc3cccc4c3C(=O)N(C3CCC(=O)NC3=O)C4=O)cn2)CC1 (stereo not shown) [Compound 105, 2-(2,6-dioxopiperidin-3-yl)-4-(((1-(1-(2-(2-(3-fluorophenyl)-5-methyloxazol-4-yl)acetyl)piperidin-4-yl)-1H-pyrazol-4-yl)methyl)amino)isoindoline-1,3-dione] | < 100
N#CCC(=O)N1CCC(n2cc(CNc3cccc4c3C(=O)N(C3CCC(=O)NC3=O)C4=O)cn2)CC1 (stereo not shown) [Compound 19, 3-(4-(4-(((2-(2,6-dioxopiperidin-3-yl)-1,3-dioxoisoindolin-4-yl)amino)methyl)-1H-pyrazol-1-yl)piperidin-1-yl)-3-oxopropanenitrile] | < 100
Cc1ccc(N2CCC(C(=O)N3CCC(n4cc(CNc5cccc6c5C(=O)N(C5CCC(=O)NC5=O)C6=O)cn4)CC3)CC2)nc1 (stereo not shown) [Compound 118, 2-(2,6-dioxopiperidin-3-yl)-4-(((1-(1-(1-(5-methylpyridin-2-yl)piperidine-4-carbonyl)piperidin-4-yl)-1H-pyrazol-4-yl)methyl)amino)isoindoline-1,3-dione] | < 1
CC(C)(C)C(=O)N1CCC(n2cc(CNc3cccc4c3C(=O)N(C3CCC(=O)NC3=O)C4=O)cn2)CC1 (stereo not shown) [Compound 90, 2-(2,6-dioxopiperidin-3-yl)-4-(((1-(1-pivaloylpiperidin-4-yl)-1H-pyrazol-4-yl)methyl)amino)isoindoline-1,3-dione] | < 1
CC(C)(C)COC(=O)N1CCC(n2cc(CNc3cccc4c3C(=O)N(C3CCC(=O)NC3=O)C4=O)cn2)CC1 (stereo not shown) [Compound 149, neopentyl 4-(4-(((2-(2,6-dioxopiperidin-3-yl)-1,3-dioxoisoindolin-4-yl)amino)methyl)-1H-pyrazol-1-yl)piperidine-1-carboxylate] | < 1
O=C1CCC(N2C(=O)c3cccc(NCc4cnn(C5CCN(C(=O)Cn6cccn6)CC5)c4)c3C2=O)C(=O)N1 (stereo not shown) [Compound 18, 4-(((1-(1-(2-(1H-pyrazol-1-yl)acetyl)piperidin-4-yl)-1H-pyrazol-4-yl)methyl)amino)-2-(2,6-dioxopiperidin-3-yl)isoindoline-1,3-dione] | < 100
CC1(C(=O)N2CCC(n3cc(CNc4cccc5c4C(=O)N(C4CCC(=O)NC4=O)C5=O)cn3)CC2)CC(F)(F)C1 (stereo not shown) [Compound 74, 4-(((1-(1-(3,3-difluoro-1-methylcyclobutane-1-carbonyl)piperidin-4-yl)-1H-pyrazol-4-yl)methyl)amino)-2-(2,6-dioxopiperidin-3-yl)isoindoline-1,3-dione] | < 100
CC(Nc1cccc2c1C(=O)N(C1CCC(=O)NC1=O)C2=O)c1cnn(C2CCN(C(=O)OC(C)(C)C)CC2)c1 (stereo not shown) [Compound 174, tert-Butyl 4-(4-(1-((2-(2,6-dioxopiperidin-3-yl)-1,3-dioxoisoindolin-4-yl)amino)ethyl)-1H-pyrazol-1-yl)piperidine-1-carboxylate] | < 100
O=C1CCC(N2C(=O)c3cccc(NCc4cnn(C5CCN(C6CC6)CC5)c4)c3C2=O)C(=O)N1 (stereo not shown) [Compound 134, 4-(((1-(1-cyclopropylpiperidin-4-yl)-1H-pyrazol-4-yl)methyl)amino)-2-(2,6-dioxopiperidin-3-yl)isoindoline-1,3-dione] | < 100
O=C1CCC(N2C(=O)c3cccc(NCc4cnn(C5CCN(CC6(C(F)(F)F)CCC6)CC5)c4)c3C2=O)C(=O)N1 (stereo not shown) [Compound 140, 2-(2,6-dioxopiperidin-3-yl)-4-(((1-(1-((1-(trifluoromethyl)cyclobutyl)methyl)piperidin-4-yl)-1H-pyrazol-4-yl)methyl)amino)isoindoline-1,3-dione] | < 100
CC(C)CCC(=O)N1CCC(n2cc(CNc3cccc4c3C(=O)N(C3CCC(=O)NC3=O)C4=O)cn2)CC1 (stereo not shown) [Compound 23, 2-(2,6-dioxopiperidin-3-yl)-4-(((1-(1-(4-methylpentanoyl)piperidin-4-yl)-1H-pyrazol-4-yl)methyl)amino)isoindoline-1,3-dione] | < 1
O=C1CCC(N2C(=O)c3cccc(NCc4cnn(C5CCN(C6CCCC6)CC5)c4)c3C2=O)C(=O)N1 (stereo not shown) [Compound 130, 4-(((1-(1-cyclopentylpiperidin-4-yl)-1H-pyrazol-4-yl)methyl)amino)-2-(2,6-dioxopiperidin-3-yl)isoindoline-1,3-dione] | < 100
CC1(C(=O)N2CCC(n3cc(CNc4cccc5c4C(=O)N(C4CCC(=O)NC4=O)C5=O)cn3)CC2)CC1(Cl)Cl (stereo in doubt) [Compound 182, 4-(((1-(1-((R)-2,2-Dichloro-1-methylcyclopropane-1-carbonyl)piperidin-4-yl)-1H-pyrazol-4-yl)methyl)amino)-2-(2,6-dioxopiperidin-3-yl)isoindoline-1,3-dione] | < 100
CCOC(=O)N1CCC(n2cc(CNc3cccc4c3C(=O)N(C3CCC(=O)NC3=O)C4=O)cn2)CC1 (stereo not shown) [Compound 147, ethyl 4-(4-(((2-(2,6-dioxopiperidin-3-yl)-1,3-dioxoisoindolin-4-yl)amino)methyl)-1H-pyrazol-1-yl)piperidine-1-carboxylate] | < 100
